PMC8159961, “Exploring protein hotspots by optimized fragment pharmacophores” (Nature Communications, 2021)
“And” between values parts separate entries of the source, which are not always exact repeats. Equal values may be shown once. Read-outs that look alike come from different tables or passages of the source.

Assays:
bovine factor Xa = biological target: T1, bovine factor Xa (Bos taurus, UniProt P00743); assay: Protease inhibitory assay, chromogenic substrate S-2222; assay type: biochemical; conditions: cmpd conc 200 µM; for vinit: replicate values; for Ki: FactorXa, one of two values averaged in Supplementary Data 1, read-out: Ki
T1 construct: bovine factor Xa, Chromogenix, 2 nkat/mL; purchased Chromogenix
T1 sequence (P00743 234-492 limits assumed): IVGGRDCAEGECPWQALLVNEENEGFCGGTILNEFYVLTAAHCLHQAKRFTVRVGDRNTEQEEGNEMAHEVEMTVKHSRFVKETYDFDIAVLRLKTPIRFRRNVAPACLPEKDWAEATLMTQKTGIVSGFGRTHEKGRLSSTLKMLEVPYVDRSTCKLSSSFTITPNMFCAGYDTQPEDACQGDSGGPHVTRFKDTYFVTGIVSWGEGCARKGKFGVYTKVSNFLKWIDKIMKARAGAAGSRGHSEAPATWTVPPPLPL
T1 sequence (P00743 41-180 partner limits assumed): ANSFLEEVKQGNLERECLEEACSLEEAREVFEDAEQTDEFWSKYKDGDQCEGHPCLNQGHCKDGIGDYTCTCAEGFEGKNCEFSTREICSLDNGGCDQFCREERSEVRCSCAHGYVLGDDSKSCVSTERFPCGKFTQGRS

human thrombin = biological target: T2, human thrombin (Homo sapiens, UniProt P00734); assay: Protease inhibitory assay, chromogenic substrate S-2238; assay type: biochemical; conditions: for vinit: replicate values; for Ki: Thrombin, one of two values averaged in Supplementary Data 1, read-out: Ki
T2 construct: human thrombin; purchased Sigma-Aldrich

[1] = FactorXa primary screening, substrate 100 µM
[2] = Thrombin primary screening, substrate 40 µM, cmpd conc 500 µM
[3] = Thrombin Ki determination, substrate 20 µM, cmpd conc 200 µM
[4] = Thrombin Ki determination, substrate 40 µM, cmpd conc 200 µM
[5] = substrate 20 µM, cmpd conc 200 µM
[6] = substrate 40 µM, cmpd conc 200 µM
[7] = FactorXa Ki determination, substrate 100 µM
[8] = FactorXa Ki determination, substrate 200 µM

SMILES	V0 / Vi (bovine factor Xa; [1])	vinit (bovine factor Xa; [1])	V0 / Vi (human thrombin; [2])	vinit (human thrombin; [2])	further results
COc1ccc(CN2CCNCC2)cc1F [SX-D11]	0.84	17.75 and 16.65	0.91	34.582 and 34.364	
NC(=O)N1CCC(C(=O)O)CC1 [SX-D12]	1.16	11.2 and 13.7	1.12	28.036 and 28.145	V0 / Vi (human thrombin; [3]): 1.08; vinit, avrg. (human thrombin; [3]): 24.461; vinit (human thrombin; [3]): 23.803 and 25.267 and 24.313; V0 / Vi (human thrombin; [4]): 1.04; vinit, avrg. (human thrombin; [4]): 32.560; vinit (human thrombin; [4]): 34.041 and 32.608 and 31.031; Ki (human thrombin; [5]): 273 µM; Ki (human thrombin; [6]): 329 µM
CC(=O)c1sc(-c2ccc(O)cc2)nc1C [SX-E1]	1.17	15.455 and 14.545	1.10	25.309 and 28	V0 / Vi (bovine factor Xa; [7]): 1.16; vinit, avrg. (bovine factor Xa; [7]): 14.048; vinit (bovine factor Xa; [7]): 13.804 and 13.836 and 14.50; V0 / Vi (bovine factor Xa; [8]): 1.13; vinit (bovine factor Xa; [8]): 32.734 and 31.114 and 32.88; Ki (bovine factor Xa; substrate 100 µM): 781 µM; Ki (bovine factor Xa; substrate 200 µM): 687 µM; V0 / Vi (human thrombin; [3]): 1.09; vinit, avrg. (human thrombin; [3]): 24.296; vinit (human thrombin; [3]): 24.026 and 25.131 and 23.73; V0 / Vi (human thrombin; [4]): 1.06; vinit, avrg. (human thrombin; [4]): 31.885; vinit (human thrombin; [4]): 32.585 and 30.957 and 32.11; Ki (human thrombin; [5]): 251 µM; Ki (human thrombin; [6]): 207 µM
O=C(c1ccncc1)N1CCNCC1 [SX-E2]	0.96	17.673 and 18.8	0.93	31.236 and 31.673	
CC1C(=O)NC(=O)N1c1ccc(Cl)cc1 (centres unmarked) [SX-E3]	1.01	17.673 and 16.982	0.98	29.964 and 29.673	
CCN(CC)c1cccc(C)c1 [SX-E4]	0.95	17.571 and 18.5	0.95	31.418 and 31.2	
O=C(CN1CCNCC1)c1ccccc1 [SX-E5]	0.97	18.286 and 17.357	1.06	28.618 and 27.418	
Clc1ccc2nnnn2n1 [SX-E6]	1.12	15.357 and 15.429	0.99	32.073 and 28.473	
c1cnc2c(c1)NCCC2 [SX-E7]	0.98	18.836 and 17.745	0.93	33.927 and 32.545	
COc1cccc(NC2=NCCCCC2)c1 [SX-E8]	0.96	18.764 and 18.473	0.88	35.818 and 34.764	
O=C(O)C1CCN(c2ncccn2)CC1 [SX-E9]	1.08	16.073 and 17.018	1.21	27.382 and 24	V0 / Vi (human thrombin; [3]): 1.35; vinit, avrg. (human thrombin; [3]): 19.600; vinit (human thrombin; [3]): 19.72 and 18.944 and 20.14; V0 / Vi (human thrombin; [4]): 1.14; vinit, avrg. (human thrombin; [4]): 29.629; vinit (human thrombin; [4]): 27.932 and 30.186 and 30.77; Ki (human thrombin; [5]): 65 µM; Ki (human thrombin; [6]): 87 µM
N#Cc1ccc(C(=O)N2CCOCC2)cc1 [SX-E10]	1.00	14.2 and 14.8	1.00	33.091 and 29.782	
Oc1ccc(C2CCNCC2)cc1 [SX-E11]	0.73	18.742 and 20.658	1.00	31.345 and 31.818	
O=C(c1ccccc1F)N1CCNCC1 [SX-E12]	1.28	11.3	0.98	32.036 and 31.782	V0 / Vi (bovine factor Xa; [7]): 1.26; vinit, avrg. (bovine factor Xa; [7]): 12.944; vinit (bovine factor Xa; [7]): 12.386 and 12.902 and 13.544; V0 / Vi (bovine factor Xa; [8]): 1.17; vinit (bovine factor Xa; [8]): 30.668 and 30.24 and 32.808; Ki (bovine factor Xa; substrate 100 µM): 482 µM; Ki (bovine factor Xa; substrate 200 µM): 538 µM
COC(=O)c1c(C)nc(C2CC2)[nH]c1=O [SX-F1]	0.96	17.6 and 18.945	1.06	25.964 and 29.418	
N#CC1CCS(=O)(=O)C1 (centres unmarked) [SX-F2]	0.97	17.745 and 18.291	0.97	30.436 and 30.255	
O=C(O)c1cnc(-c2ccccc2)s1 [SX-F3]	1.02	17.382 and 16.873	1.06	26.545 and 28.873	V0 / Vi (human thrombin; [3]): 1.08; vinit, avrg. (human thrombin; [3]): 24.620; vinit (human thrombin; [3]): 23.206 and 25.134 and 25.52; V0 / Vi (human thrombin; [4]): 1.05; vinit, avrg. (human thrombin; [4]): 32.167; vinit (human thrombin; [4]): 32.686 and 32.577 and 31.24; Ki (human thrombin; [5]): 297 µM; Ki (human thrombin; [6]): 245 µM
N#CCCN1CCc2ccccc21 [SX-F4]	1.01	16.857 and 17.357	1.01	31.2 and 28.109	
O=C(O)c1cccc(Nc2ncccn2)c1 [SX-F5]	0.98	17.143 and 18.071	1.09	26.836 and 28	
O=C(Nc1ccccc1)C1CC1 [SX-F6]	0.98	18 and 17.071	0.98	29.527 and 31.309	
Oc1nnc(-c2ccccc2)o1 [SX-F7]	1.07	16.182 and 17.345	0.99	31.527 and 31.273	
Cc1nccn1Cc1cccc(C#N)c1 [SX-F8]	0.98	18.582 and 18	0.91	34 and 33.891	

SMILES	V0 / Vi (bovine factor Xa; [1])	vinit (bovine factor Xa; [1])	V0 / Vi (human thrombin; [2])	vinit (human thrombin; [2])	further results
CC(CN)N1CCc2sccc2C1 (centres unmarked) [SX-F9]	0.97	18.364 and 18.582	1.01	34.291 and 27.273	
NCC1(c2ccccc2)CCOCC1 [SX-F10]	0.94	14.6 and 16.3	0.89	36.218 and 34.182	
Oc1cnc(-c2ccccc2)nc1 [SX-F11]	1.00	14.672 and 14.2	1.02	30.836 and 30.8	
Cc1cc(C)c2c(=O)[nH]n(C)c2n1 [SX-F12]	1.09	11.4 and 15	0.97	31.745 and 32.764	
COc1ccc(C2=CCNCC2)cc1 [SX-G1]	0.93	19.4 and 17.2	1.03	31.055 and 32.691	
Cn1c(CO)nc2ccccc21 [SX-G2]	0.96	18 and 17.3	1.00	32.764 and 33.018	
CN(C)c1cc(CN)ccn1 [SX-G3]	0.93	17.9 and 18.5	0.92	35.564 and 35.891	
O=C(NC1CC1)c1ccccc1O [SX-G4]	0.96	17.5 and 17.8	1.01	31.745 and 33.345	
c1ccc2sc(N3CCNCC3)nc2c1 [SX-G5]	1.01	16.1 and 17.4	1.04	31.164 and 32.073	
O=C(O)C1CCCN(C(=O)N2CCCC2)C1 (centres unmarked) [SX-G6]	1.09	16.1 and 15	1.18	27.345 and 28.364	
O=C1CCN(c2ccncc2)CC1 [SX-G7]	1.03	17.5 and 15.6	0.90	36.109 and 37.055	
O=C1CCN(c2ccccn2)CC1 [SX-G8]	0.97	18.3 and 16.6	0.99	33.236	
Nc1ccc(-c2ccccc2)cc1C(=O)O [SX-G9]	1.04	16.3	1.08	29.309 and 31.745	
O=C(CN1CCCC1)c1ccccc1Cl [SX-G10]	1.00	17.7 and 16.3	0.99	33.345 and 33.273	
CCc1nccn1CC(=O)O [SX-G11]	1.08	16.214 and 15.4	1.02	32.764 and 31.636	
CS(=O)(=O)Nc1ccc(C(=O)O)cc1 [SX-G12]	1.01	17.2 and 16.5	1.06	31.418 and 30.764	
O=C(O)c1ccc(CN2CCOCC2)cc1 [SX-H1]	0.98	17.6 and 17	1.07	31.127 and 30.255	
O=C(O)CC1CCC(=O)N1 (centres unmarked) [SX-H2]	1.01	17.5 and 16.3	1.12	30.691 and 28	
FC1(F)CNCC(F)(F)O1 [SX-H3]	0.94	18.2 and 17.8	0.99	34.218 and 32.291	
Fc1ccc2c(C3CCNCC3)c[nH]c2c1 [SX-H4]	0.92	18 and 18.9	0.95	34.909 and 34.764	
Oc1ccc(-n2cncn2)cc1 [SX-H5]	1.05	16 and 16.3	1.00	33.091 and 32.545	
